“And” between values parts separate entries of the source, which are not always exact repeats. Equal entries are not always repeated.
Legend:
[1] = system: Salmonella Typhimurium TA98; test: bacterial mutagenicity, strain TA98; assay type: cell-based; set-up: key to Mutagenicity TA98: +: Positive Response; -: Negative Response; w+: Weak Positive Response
Description: (§1) The tests were carried out as follows:
(§2) Four phenylpiperazine derivatives were selected and specially purified samples were prepared for testing as bacterial mutagens. The tests were conducted with five strains (TA98, TA100, TA1535, TA1537, and TA1538) of Salmonella Typhimurium. The compounds were the base of cpd. A (Table 6a), cpd. 28 (Table 2), cpd. 49 (Table 3), and cpd. 8 (Table 1). Hycanthone was used as a positive control drug. In the initial test, cpd. A base was nonmutagenic, confirming previous work using strains TA98 and TA100 with cpd. A. Cpd. 28 and cpd. […] In this initial test, cpd. […] Therefore, it was concluded that cpd. 49 is nonmutagenic in the Ames/Salmonella assay.

[2] = system: Salmonella Typhimurium TA1535; test: bacterial mutagenicity, strain TA1535; assay type: cell-based; set-up: key: +: Positive Response; -: Negative Response; w+: Weak Positive Response; details: without metabolic activation
Description: as §1, §2

[3] = system: Salmonella Typhimurium TA1538; test: bacterial mutagenicity, strain TA1538; assay type: cell-based; set-up: key: +: Positive Response; -: Negative Response; w+: Weak Positive Response
Description: as §1, §2

Salmonella Typhimurium = test: bacterial mutagenicity (Ames/Salmonella), five strains together; assay type: cell-based; details: for bacterial mutagenicity: initial test
Description: as §1
Four phenylpiperazine derivatives were selected and specially purified samples were prepared for testing as bacterial mutagens. The tests were conducted with five strains (TA98, TA100, TA1535, TA1537, and TA1538) of Salmonella Typhimurium. The compounds were the base of cpd. A (Table 6a), cpd. 28 (Table 2), cpd. 49 (Table 3), and cpd. 8 (Table 1). Hycanthone was used as a positive control drug.

[4] = system: Salmonella Typhimurium TA1537; test: bacterial mutagenicity, strain TA1537; assay type: cell-based; set-up: key: +: Positive Response; -: Negative Response; w+: Weak Positive Response
Description: as §1, §2

[5] = system: Salmonella Typhimurium TA100; test: bacterial mutagenicity, strain TA100; assay type: cell-based; set-up: key: +: Positive Response; -: Negative Response; w+: Weak Positive Response
Description: as §1, §2

S. mansoni [6] = test: antischistosomal activity in mice (live worm burden, single oral dose); assay type: in vivo, S. mansoni (host: CD1 white female mice); details: Schistosoma mansoni, single oral dose, read-out: % Reduction Live Worm Burden; for inhibition in vivo at 40 mg/kg / inhibition in vivo at 20 mg/kg / inhibition in vivo at 125 mg/kg: mice; for inhibition in vivo at 50 mg/kg: mice (footnote, 40 mg/kg); for inhibition in vivo at 156 mg/kg: mice (footnote, 125 mg/kg column)
Description: Tests were conducted to determine the antischistosomal activity in mice and monkeys. The results of the mice tests are reported in Tables 1 to 4 along with the chemical identifications of the compounds synthesized and tested.
The mice tests were conducted as follows:
A. Preinfection Procedures: Purina Laboratory chow (Ralston-Purina) and water were given ad libitum. All mice were housed in hanging stainless steel cages, without bedding, five per cage. They were kept in a ward with an ambient temperature of 75° F. and a relative humidity of 50-55%. Therapeutic treatment was given on Day 40 post-infection.
B. Experimental Procedures: CD1 white female mice were exposed by the tail immersion method for 30 minutes to 80 individually counted S. mansoni cercariae (WRAIR laboratory strain). The cercariae were obtained from pools of no less than 25 Biophalaria glabrata snails. Each experiment consisted of 118 mice divided into infected/water treated and infected/vehicle-treated controls, and infected/drug-treated groups (two dose levels) for six compounds. Groups of 12 mice each were treated with a compound synthesized and provided by the Warner-Lambert Company, Ann Arbor, Mich. at two dose levels. At the same time, five mice were sacrificed to establish worm burdens as infection controls. Three weeks after treatment, all remaining mice were sacrificed and perfused. Gross pathology (liver and intestines) was noted and graded (0 to +3). Worm burdens were determined and the sex of the worms recorded. Following perfusions the liver and intestines were removed and examined for the presence of […] or dead worms. […] Drugs were administered orally in Emulphor EL.
C. Drug Treatment: Treatment consisted of a single oral dose. Each drug was give initially at two dose levels, 40 mg/kg and 125 mg/kg, SID×1.
D. Criteria Used to Evaluate Therapeutic Effectiveness:
Evaluation of activity was determined by examination of the animals at 23 to 28 days after treatment. The schistosomes remaining alive after treatment were counted in the perfusates of the hepatic portal system and in press preparation of the livers. In the same preparations, the relative numbers of dead and/or encapsulated (i.e., worms may or may not be dead) parasites and the relative degree of pathology were ascertained. The efficacy of each treatment was that percentage of the control infection represented by the difference between numbers of parasites recovered from control (H2 O+vehicle) and treated animals. Thus, % efficacy is: [formula]

S. mansoni [7] = test: antischistosomal activity in Cebus apella monkeys treated orally; assay type: in vivo, S. mansoni (host: Cebus apella monkeys); details: four equal doses over two days, oral; for Total Normal Worms at Necropsy: two values given, not assigned to the doses

## O=C(CN1CCN(c2ccc(CO)c(Cl)c2)CC1)c1ccc(Cl)c(Cl)c1Cl [Cpd. 8, 2-[4-[3-Chloro-4-(hydroxymethyl)phenyl]-1-piperazinyl]-1-(2,3,4-trichlorophenyl)ethanone]
[1]; with metabolic activation
  Mutagenicity TA98: -
[1]; without metabolic activation
  Mutagenicity TA98: -
[2]
  Mutagenicity TA1535: -
[3]; with metabolic activation
  Mutagenicity TA1538: -
[3]; without metabolic activation
  Mutagenicity TA1538: -
Salmonella Typhimurium; five strains
  bacterial mutagenicity: mutagenic, but much less so than hycanthone
[4]; with metabolic activation
  Mutagenicity TA1537: w+
[4]; without metabolic activation
  Mutagenicity TA1537: -
[5]; with metabolic activation
  Mutagenicity TA100: +
S. mansoni [6]
  inhibition in vivo at 40 mg/kg: 84%
  inhibition in vivo at 50 mg/kg: 91%
  inhibition in vivo at 156 mg/kg: 96%

## O=C(CCN1CCN(c2ccc(CO)c(Cl)c2)CC1)c1ccc(Cl)cc1 [Cpd. 28, 3-[4-[3-Chloro-4-(hydroxymethyl)phenyl]-1-piperazinyl]-1-(4-chlorophenyl)-1-propanone]
[1]; with metabolic activation
  Mutagenicity TA98: -
[1]; without metabolic activation
  Mutagenicity TA98: -
[2]
  Mutagenicity TA1535: -
[3]; with metabolic activation
  Mutagenicity TA1538: +
[3]; without metabolic activation
  Mutagenicity TA1538: w+
Salmonella Typhimurium; five strains
  bacterial mutagenicity: mutagenic, but much less so than hycanthone
[4]; with metabolic activation
  Mutagenicity TA1537: -
[4]; without metabolic activation
  Mutagenicity TA1537: w+
[5]; with metabolic activation
  Mutagenicity TA100: +
S. mansoni [6]
  inhibition in vivo at 20 mg/kg: 66%
  inhibition in vivo at 40 mg/kg: 88%
  inhibition in vivo at 50 mg/kg: 98%
  inhibition in vivo at 156 mg/kg: 99%

## O=C(CN1CCN(c2ccc(CO)c(Cl)c2)CC1)c1cc2ccccc2o1 [Cpd. 49, 2-[4-[3-Chloro-4-(hydroxymethyl)phenyl]-1-piperazinyl]-1-(2-benzofuranyl)-ethanone]
[1]; initial test, TA98 with microsomal activation
  bacterial mutagenicity: weakly mutagenic
[1]; second test, TA98, microsomal activation, additional concentrations 10-60 micrograms/ml
  bacterial mutagenicity: did not confirm this mutagenicity
[1]; with metabolic activation
  Mutagenicity TA98: +
[1]; without metabolic activation
  Mutagenicity TA98: -
[2]
  Mutagenicity TA1535: -
[3]; with metabolic activation
  Mutagenicity TA1538: -
[3]; without metabolic activation
  Mutagenicity TA1538: -
Salmonella Typhimurium; Ames/Salmonella assay, overall conclusion
  bacterial mutagenicity, conclusion: nonmutagenic
Salmonella Typhimurium; other four strains (not TA98)
  bacterial mutagenicity: nonmutagenic
[4]; with metabolic activation
  Mutagenicity TA1537: -
[4]; without metabolic activation
  Mutagenicity TA1537: -
[5]; with metabolic activation
  Mutagenicity TA100: -
S. mansoni [6]
  inhibition in vivo at 20 mg/kg: 33%
  inhibition in vivo at 125 mg/kg: 97%

## CCN(CC)CCNc1ccc(CO)c2sc3ccccc3c(=O)c12 [Hycanthone, reference compound]
[1]; with metabolic activation
  Mutagenicity TA98: +
[1]; without metabolic activation
  Mutagenicity TA98: +
[2]
  Mutagenicity TA1535: -
[3]; with metabolic activation
  Mutagenicity TA1538: +
[3]; without metabolic activation
  Mutagenicity TA1538: +
[4]; with metabolic activation
  Mutagenicity TA1537: +
[4]; without metabolic activation
  Mutagenicity TA1537: +
[5]; with metabolic activation
  Mutagenicity TA100: +
[5]; without metabolic activation
  Mutagenicity TA100: +

## O=C(CN1CCN(c2ccc(CO)c(Cl)c2)CC1)c1cccs1 [compound 45]
S. mansoni [6]
  inhibition in vivo at 40 mg/kg: 10%
  inhibition in vivo at 125 mg/kg: 68%

## O=C(CN1CCN(c2ccc(CO)c(Cl)c2)CC1)c1ccco1 [compound 46]
S. mansoni [6]
  inhibition in vivo at 50 mg/kg: 31%
  inhibition in vivo at 156 mg/kg: 83%

## O=C(CN1CCN(c2ccc(CO)c(Cl)c2)CC1)c1ccc(Br)s1 [compound 47]
S. mansoni [6]
  inhibition in vivo at 40 mg/kg: 35%
  inhibition in vivo at 125 mg/kg: 93%

## O=C(CN1CCN(c2ccc(CO)c(Cl)c2)CC1)c1ccc(I)s1 [compound 48]
S. mansoni [6]
  inhibition in vivo at 40 mg/kg: -20%
  inhibition in vivo at 125 mg/kg: 30%

## Cc1ccsc1C(=O)CN1CCN(c2ccc(CO)c(Cl)c2)CC1 [compound 50]
S. mansoni [6]
  inhibition in vivo at 40 mg/kg: -12%
  inhibition in vivo at 125 mg/kg: 28%

## O=C(CN1CCN(c2ccc(CO)c(Cl)c2)CC1)c1ccsc1 [compound 51]
S. mansoni [6]
  inhibition in vivo at 40 mg/kg: -6%
  inhibition in vivo at 125 mg/kg: 83%

## Cc1csc(C(=O)CN2CCN(c3ccc(CO)c(Cl)c3)CC2)c1 [compound 52]
S. mansoni [6]
  inhibition in vivo at 40 mg/kg: 25%
  inhibition in vivo at 125 mg/kg: 69%

## O=C(CN1CCN(c2ccc(CO)c(Cl)c2)CC1)c1cc(Cl)sc1Cl [compound 54]
S. mansoni [6]
  inhibition in vivo at 40 mg/kg: 69%
  inhibition in vivo at 125 mg/kg: 83%

## O=C(CN1CCN(c2ccc(CO)c(Cl)c2)CC1)c1ccc2c(c1)Sc1ccccc1S2 [compound 55]
S. mansoni [6]
  inhibition in vivo at 40 mg/kg: 54%
  inhibition in vivo at 125 mg/kg: 68%

## O=C(CN1CCN(c2ccc(CO)c(Cl)c2)CC1)c1ccc2sc3ccccc3c2c1 [compound 56]
S. mansoni [6]
  inhibition in vivo at 40 mg/kg: 51%
  inhibition in vivo at 125 mg/kg: 77%

## Cc1ccc(C(=O)CCCN2CCN(c3ccc(CO)c(Cl)c3)CC2)cc1C [compound 60]
S. mansoni [6]
  inhibition in vivo at 40 mg/kg: 67%
  inhibition in vivo at 125 mg/kg: 88%

## O=C(CCN1CCN(c2ccc(CO)c(Cl)c2)CC1)c1ccc(Cl)cc1 [drawing 32]
S. mansoni [7]; 100 mg/kg
  % Reduction Live Worm Burden at Necropsy: 93% and 87%
  Total Live Worms at Necropsy: 15 and 27
S. mansoni [7]; 200 mg/kg
  % Reduction Live Worm Burden at Necropsy: 100% and 96%
S. mansoni [7]; 400 mg/kg
  % Reduction Live Worm Burden at Necropsy: 97% and 95%
  Total Live Worms at Necropsy: 6 and 11
S. mansoni [7]
  Total Normal Worms at Necropsy: 0
S. mansoni [7]; two values printed for six animals (400, 200, 100 mg/kg), not assigned
  Fecal Egg Count: 0

## O=C(CN1CCN(c2ccc(CO)c(Cl)c2)CC1)c1ccc(Cl)c(Cl)c1Cl [drawing 33]
S. mansoni [7]; 200 mg/kg
  % Reduction Live Worm Burden at Necropsy: 85% and 83%
  Fecal Egg Count: 0
S. mansoni [7]; 400 mg/kg
  % Reduction Live Worm Burden at Necropsy: 99% and 98%
  Fecal Egg Count: 0
S. mansoni [7]
  Total Normal Worms at Necropsy: 0

Source: patent publication US4515793A, “Phenylpiperazines which are useful in the treatment of schistosomiasis” (Edna McConnell Clark Foundation, priority 1983, dated 1985)
